According to the supplement of paper PMC10331698:
± gives the standard deviation of the averaged measurements.

Columns and labels:
Assay in all cases: level (log10 ratio to DMSO vehicle control); higher = higher biomarker level / cell amount than vehicle control
Conditions in all cases: in DMSO
[1] = compound: O=S(=O)(O)C(F)(F)C(F)(F)C(F)(F)C(F)(F)C(F)(F)C(F)(F)C(F)(F)C(F)(F)F [Potassium perfluorooctanesulfonate]
Experimental: (§1)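 BioMAP Diversity Plus panel of 12 human primary cell co-culture systems (3C, 4H, LPS, SAg, BT, BF4T, BE3C, CASM3C, HDF3CGF, KF3CT, MyoF, Mphg). Compounds were added 1 h before stimulation and left for 24 h (MyoF 48 h; BT 72 h for soluble read-outs or 6 d for IgG). Biomarkers were read by ELISA, cytotoxicity by SRB, PBMC viability and proliferation by Alamar Blue. Each well value was divided by the mean of 8 DMSO control wells on the same plate and log10 transformed; duplicate blinded samples were tested at 4 concentrations.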

[2] = compound: O=C(O)C(F)(F)C(F)(F)C(F)(F)C(F)(F)C(F)(F)C(F)(F)C(F)(F)C(F)(F)C(F)(F)C(F)(F)C(F)(F)C(F)(F)F [Perfluorotridecanoic acid]
Experimental: as §1

[3] = compound: O=C(O)C(F)(F)OC(F)(F)C(F)(F)OC(F)(F)C(F)(F)C(F)(F)C(F)(F)F [Perfluoro-3,6-dioxadecanoic acid]
Experimental: as §1

Hexafluoroglutaric acid = compound: O=C(O)C(F)(F)C(F)(F)C(F)(F)C(=O)O [Hexafluoroglutaric acid]
Experimental: as §1

[4] = compound: O=C(O)C(F)(F)C(F)(F)C(F)(F)C(F)(F)C(F)(F)C(F)(F)C(F)(F)C(F)(F)C(F)(F)C(F)(F)C(F)(F)C(F)(F)C(F)(F)F [Perfluorotetradecanoic acid]
Experimental: as §1

1-(Perfluorohexyl)octane = compound: CCCCCCCCC(F)(F)C(F)(F)C(F)(F)C(F)(F)C(F)(F)C(F)(F)F [1-(Perfluorohexyl)octane]
Experimental: as §1

[5] = compound: O=C(O)C(F)(F)C(F)(F)C(F)(F)C(F)(F)C(F)(F)C(F)(F)C(F)(F)C(F)(F)Cl [9-Chloro-perfluorononanoic acid]
Experimental: as §1

Row | Test System | level (log10) ([1]; 6700 nM) | level (log10) ([1]; 20000 nM) | level (log10) ([1]; 60000 nM) | level (log10) ([2]; 1500 nM) | level (log10) ([2]; 4400 nM) | level (log10) ([2]; 13000 nM) | level (log10) ([2]; 40000 nM) | level (log10) ([3]; 6700 nM) | level (log10) ([3]; 20000 nM) | level (log10) ([3]; 60000 nM) | level (log10) (Hexafluoroglutaric acid; 6700 nM) | level (log10) (Hexafluoroglutaric acid; 20000 nM) | level (log10) (Hexafluoroglutaric acid; 60000 nM) | level (log10) ([4]; 6700 nM) | level (log10) ([4]; 20000 nM) | level (log10) (1-(Perfluorohexyl)octane; 6700 nM) | level (log10) (1-(Perfluorohexyl)octane; 20000 nM) | level (log10) ([5]; 6700 nM) | level (log10) ([5]; 20000 nM)
1 | lMphg:CCL2/MCP-1 | -0.0275 ± 0.018 | -0.013 ± 0.047 | -0.0155 ± 0.026 | -0.0115 ± 0.018 | 0.001 ± 0.017 | -0.004 ± 0.023 | 0.0275 ± 0.028 | -0.024 ± 0.037 | -0.0225 ± 0.023 | -0.0435 ± 0.0092 | -0.046 ± 0.052 | -0.0305 ± 0.037 | -0.0235 ± 0.011 | -0.013 ± 0.014 | -0.004 ± 0.0099 | -0.0225 ± 0.022 | 0.0065 ± 0.025 | 0.008 ± 0.047 | 0.0025 ± 0.015
2 | CASM3C:CD87/uPAR | -0.0025 ± 0.012 | -0.016 ± 0.0014 | -0.0095 ± 0.011 | 0.0185 ± 0.011 | 0.028 ± 0.0014 | -0.01 ± 0.013 | 0.0015 ± 0.019 | 0.001 ± 0.0014 | -0.0055 ± 0.0064 | -0.0175 ± 0.025 | -0.001 ± 0.014 | -0.0185 ± 0.033 | -0.0075 ± 0.0035 | -0.0305 ± 0.057 | -0.0375 ± 0.026 | -0.0175 ± 0.0078 | -0.005 ± 0.011 | -0.002 | 0.02 ± 0.0071
3 | CASM3C:CD106/VCAM-1 | -0.0125 ± 0.019 | -0.0175 ± 0.005 | -0.104 ± 0.041 | -0.017 ± 0.05 | -0.0515 ± 0.015 | -0.167 ± 0.083 | -0.22 ± 0.054 | 0.001 ± 0.011 | -0.0145 ± 0.0092 | 0.0065 ± 0.037 | -0.0105 ± 0.03 | -0.0125 ± 0.036 | 0.012 ± 0.011 | -0.023 ± 0.041 | -0.0065 ± 0.073 | -0.023 ± 0.0014 | -0.0115 ± 0.021 | -0.029 ± 0.0014 | -0.027 ± 0.016
4 | CASM3C:Proliferation | -0.0125 ± 0.033 | 0.006 ± 0.042 | 0.023 ± 0.0099 | 0.02 ± 0.016 | -0.0055 ± 0.036 | 0.0085 ± 0.026 | -0.013 ± 0.0014 | 0.0135 ± 0.0035 | -0.0165 ± 0.029 | 0.0015 ± 0.018 | -0.015 ± 0.083 | -0.029 ± 0.0071 | 0.004 ± 0.0071 | 0.0075 ± 0.028 | -0.018 ± 0.0057 | -0.0005 ± 0.067 | 0.0175 ± 0.046 | -0.016 ± 0.02 | 0.004 ± 0.025
5 | KF3CT:CXCL10/IP-10 | -0.0075 ± 0.032 | -0.0015 ± 0.016 | -0.0335 ± 0.012 | -0.009 ± 0.0071 | -0.011 ± 0.0028 | -0.015 ± 0.017 | -0.06 ± 0.044 | -0.022 ± 0.0042 | -0.0335 ± 0.011 | -0.113 ± 0.028 | -0.001 | -0.01 ± 0.0014 | 0.005 ± 0.0014 | 0.0065 ± 0.016 | -0.0165 ± 0.016 | -0.0055 ± 0.018 | -0.011 ± 0.0099 | -0.0235 ± 0.0035 | -0.0715 ± 0.0092
6 | HDF3CGF:MMP-1 | -0.0075 ± 0.011 | -0.0155 ± 0.0092 | -0.0025 ± 0.005 | -0.0005 ± 0.035 | -0.061 ± 0.042 | -0.063 ± 0.044 | -0.068 ± 0.069 | -0.023 ± 0.011 | -0.0485 ± 0.013 | -0.068 ± 0.011 | 0.0195 ± 0.0092 | 0.002 ± 0.02 | -0.0045 ± 0.021 | -0.044 ± 0.016 | -0.019 ± 0.0071 | -0.0395 ± 0.012 | -0.014 ± 0.023 | -0.0875 ± 0.005 | -0.118 ± 0.011
7 | BE3C:tPA | 0.115 ± 0.0035 | -0.101 ± 0.027 | -0.165 ± 0.03 | 0.096 ± 0.011 | 0.115 ± 0.0021 | 0.0955 ± 0.032 | 0.03 ± 0.0071 | -0.0345 ± 0.029 | -0.09 ± 0.04 | -0.156 ± 0.018 | -0.008 ± 0.0014 | -0.0465 ± 0.005 | -0.0085 ± 0.022 | 0.04 ± 0.075 | 0.0035 ± 0.06 | -0.0015 ± 0.03 | 0 ± 0.033 | 0.0195 ± 0.023 | -0.0985 ± 0.023
8 | HDF3CGF:CXCL8/IL-8 | -0.007 ± 0.0085 | -0.0065 ± 0.0035 | 0.004 ± 0.013 | 0.007 | 0.004 ± 0.0014 | 0.012 ± 0.0014 | 0.0165 ± 0.015 | -0.0065 ± 0.005 | -0.001 ± 0.0028 | 0.001 ± 0.016 | -0.005 ± 0.013 | -0.0005 ± 0.0064 | -0.0015 ± 0.0035 | -0.0045 ± 0.012 | 0.008 ± 0.0085 | 0.0065 ± 0.0064 | 0.008 ± 0.0057 | -0.0225 ± 0.011 | 0.0015 ± 0.005
9 | BE3C:PAI-I | -0.0115 ± 0.012 | -0.255 ± 0.03 | -0.253 ± 0.037 | 0.006 ± 0.017 | 0.0335 ± 0.0035 | -0.004 ± 0.042 | -0.0285 ± 0.054 | 0.0345 ± 0.021 | 0.009 ± 0.031 | -0.11 ± 0.005 | -0.0205 ± 0.016 | -0.014 ± 0.027 | 0.002 ± 0.03 | 0.007 ± 0.058 | -0.0175 ± 0.064 | -0.025 ± 0.0057 | -0.024 | 0.0005 ± 0.0035 | -0.215 ± 0.017
10 | MyoF:Decorin | 0.0305 ± 0.019 | 0.0305 ± 0.013 | 0.0565 ± 0.013 | 0.046 ± 0.05 | 0.06 ± 0.035 | 0.047 ± 0.047 | 0.0365 ± 0.039 | 0.0005 ± 0.0021 | 0.023 ± 0.014 | -0.021 ± 0.027 | -0.0145 ± 0.0078 | -0.0225 ± 0.0064 | -0.031 ± 0.0099 | 0.033 ± 0.027 | 0.0515 ± 0.026 | 0.005 ± 0.011 | 0.0265 ± 0.032 | 0.012 ± 0.0014 | -0.0045 ± 0.05
11 | KF3CT:PAI-I | -0.044 ± 0.027 | -0.053 ± 0.0071 | -0.125 ± 0.024 | -0.006 ± 0.028 | -0.0155 ± 0.015 | -0.0135 ± 0.023 | -0.052 ± 0.027 | -0.007 ± 0.0014 | -0.0325 ± 0.0078 | -0.0495 ± 0.021 | -0.004 ± 0.0042 | -0.0005 ± 0.005 | 0.0045 ± 0.0092 | -0.015 ± 0.0014 | 0 ± 0.0071 | 0.0165 ± 0.0078 | 0.026 ± 0.011 | -0.01 ± 0.0057 | -0.101 ± 0.0078
